Where two headings read alike, the source gives them in different places.

The subject of test [1] is TGF-β signalling (PAI-1 promoter-luciferase in HepG2 cells). Put plainly: Cellular transcriptional assay: PAI-1 promoter firefly luciferase reporter in cells exposed to TGF-β. The test is classed as cell-based. The note with it: for IC50: HepG2 cells, 1 ng/mL rhTGFβ-1. As for the experimental part:
Assay 1 (Cellular Transcriptional Assay)
The assay was performed in HepG2 cells stably transfected with the PAI-1 promoter (known to be a strong TGF-β responsive promoter) linked to a luciferase (firefly) reporter gene. The compounds were selected on their ability to inhibit luciferase activity in cells exposed to TGF-β. In addition, cells were transfected with a second luciferase (Renilla) gene which was not driven by a TGF-β responsive promoter and was used as a toxicity control.
96 well microplates were seeded, using a multidrop apparatus, with the stably transfected cell line at a concentration of 35000 cells per well in 200 μl of serum-containing medium. These plates were placed in a cell incubator.
18 to 24 hours later (Day 2), cell-incubation procedure was launched. Cells were incubated with TGF-β and a candidate compound at concentrations in the range 50 nM to 10 μM (final concentration of DMSO 1%). The final concentration of TGF-β (rhTGFβ-1) used in the test was 1 ng/mL. Cells were incubated with a candidate compound 15-30 mins prior to the addition of TGF-β. The final volume of the test reaction was 150 μl. Each well contained only one candidate compound and its effect on the PAI-1 promoter was monitored.
Columns 11 and 12 were employed as controls. Column 11 contained 8 wells in which the cells were incubated in the presence of TGF-β, without a candidate compound. Column 11 was used to determine the ‘reference TGF-β induced firefly luciferase value’ against which values measured in the test wells (to quantify inhibitory activity) were compared. […]
12 to 18 hours later (day 3), the luciferase quantification procedure was launched. […] Following agitation (15 to 30 mins), luciferase activities of the plates were read in a dual-injector luminometer (BMG lumistar). For this purpose, 50 μl of luciferase assay reagent and 50 μl of ‘Stop & Glo’ buffer were injected sequentially to quantify the activities of both luciferases. […] For each of the compounds tested, a concentration response curve was constructed from which an IC50 value was determined graphically.

Test [2] addresses T1, recombinant GST-ALK5 (residues 198-503) (Homo sapiens, UniProt P36897).
T1 construct: assays using recombinant GST-ALK5 (residues 198-503)
T1 sequence (P36897 198-503): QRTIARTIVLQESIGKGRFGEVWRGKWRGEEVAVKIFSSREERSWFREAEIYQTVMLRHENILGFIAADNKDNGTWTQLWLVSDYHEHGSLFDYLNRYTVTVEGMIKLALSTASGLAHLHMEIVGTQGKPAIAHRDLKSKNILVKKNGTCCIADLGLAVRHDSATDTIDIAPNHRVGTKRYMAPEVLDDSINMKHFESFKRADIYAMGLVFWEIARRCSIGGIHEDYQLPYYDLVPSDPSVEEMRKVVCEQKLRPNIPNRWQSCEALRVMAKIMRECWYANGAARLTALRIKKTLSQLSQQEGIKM
Description: Alk5 fluorescence polarization assay (displacement of rhodamine green-labelled ligand). The test is classed as binding.
Description: Kinase inhibitor compounds conjugated to fluorophores, can be used as fluorescent ligands to monitor ATP competitive binding of other compounds to a given kinase. The increase in depolarization of plane polarized light, caused by release of the bound ligand into solution, is measured as a polarization/anisotropy value.
The compounds were serially diluted (3-fold in 100% DMSO) across the plate to column 11 to yield 11 concentrations for each test compound. Column 12 contained only DMSO.
ALK5 was added to assay buffer containing the above components and 1 nM of the rhodamine green-labelled ligand so that the final ALK5 concentration was 10 nM based on active site titration of the enzyme. The enzyme/ligand reagent (39 μl) was added to each well of the previously prepared assay plates. […] The plates were read immediately on a LJL Acquest fluorescence reader (Molecular Devices, serial number AQ1048) with excitation, emission, and dichroic filters of 485 nm, 530 nm, and 505 nm, respectively. The fluorescence polarization for each well was calculated by the Acquest reader and then imported into curve fitting software for construction of concentration response curves. The normalized response was determined relative to the high controls (1 μl DMSO in column 12, rows A-D) and the low controls (1 μl of control compound in column 12, rows E-H). An IC50 value was then calculated for each compound

In the case of `O=C1C=CCC1` [CPO, Cyclopentenone, reference compound], the “firefly and renilla luciferase activities (toxicity control)” value in test [1] (500 μM CPO in presence of TGF-β, relative to TGF-β only) is given as “around 50%”.

On to `Cc1cccc(-c2[nH]c(C(C)(C)C)nc2-c2ccnc(-c3ccc(N4CCOCC4)cc3)c2)n1` [Example 86, 4-{4-[4-(2-tert-Butyl-5-{6-methyl}-pyridin-2-yl-1 H-imidazol-4-yl)-pyridin-2-yl]-phenyl}-morpholine], for which the IC50 (usually the midpoint of a concentration-inhibition curve) in test [1] turned out to be 183 nM; in test [2] (fluorescence polarization, 10 nM ALK5, 1 nM labelled ligand, read-out: ALK5 receptor modulator activity (IC50)), 34 nM.

Take `Cc1cccc(-c2nc(C(C)C)[nH]c2-c2ccnc(-c3ccc(C(=O)NC4CCOCC4)cc3)c2)n1` [Example 96, N-(tetrahydropyran-4-yl)-4-(4-{2-isopropyl-5-[6-methyl-pyridin-2-yl]-1H-imidazol-4-yl}-pyridin-2-yl)-benzamide]: the values for the IC50 in test [1] (Homo sapiens) and in test [2] were < 14 nM and 25 nM, respectively.
